{"source": "patent US20230240290A1", "about": "“USE OF (Z)-3-HEXENYL ESTERS AND METHOD FOR PROTECTING PLANTS AGAINST PESTS” (UNIVERSITAT POLITÈCNICA DE VALÈNCIA, priority 2020, published 2023)", "key": {"[1]": {"system": "PIN2 (marker gene for the JA signaling pathway)", "test": "Field (commercial greenhouse) assay, transcriptional response of PIN2 in tomato plants", "format": "in vivo, tomato cv Raf", "settings": "LD dispenser every 20 m2, at 30 and 60 days", "method": "(§1) To know the behavior of the dispensers loaded with (Z)-3-hexenyl propionate under real cultivation conditions, four commercial greenhouses for tomato cv Raf located in Xilxes (Castellón province), with a history of problems with T. absoluta contamination at the end of winter, were selected. An experimental design of randomized blocks was carried out where each greenhouse was considered a block with two treatments per block and 4 repetitions per treatment. […]\n(§2) Twenty plants randomly chosen by repetition were sampled weekly for 11 weeks, beginning 30 Jan. […] First, the number of leaflets infested by T. absoluta per plant was counted. Then the number of N. tenuis (adults and nymphs) throughout the apical third of each plant (leaves, flowers and shoots) was counted. Following the methodology described above, 6 samples were taken from the apical part of each plant per repetition, and these samples were immediately introduced into liquid nitrogen to quantify the expression of the PR1 and PIN2 genes (described in Example 1 and Example 2). The expression of these genes was quantified one day before, 4, and 8 weeks after hanging the dispensers in the greenhouses."}, "[2]": {"system": "PR1 (marker gene for the SA signaling pathway)", "test": "Field (commercial greenhouse) assay, transcriptional response of PR1 in tomato plants", "format": "in vivo, tomato cv Raf", "settings": "LD dispenser every 20 m2, at 30 and 60 days", "method": "as §1, §2"}, "Tetranychus urticae": {"system": "Tetranychus urticae", "test": "Development of Tetranychus urticae on exposed tomato plants", "format": "in vivo", "settings": "T. urticae, 21 days after release", "method": "It was also studied whether the defensive activation induced by exposure to (Z)-3-hexenyl propanoate could influence the development of two highly important phytophages in tomato cultivation, the red spider, T. urticae, and the lepidoptera T. absoluta. The individuals used in these experiments came from the captive breeding of these species that are kept in the IVIA described above. The exposure time of the plant to the volatile was tested on both phytophages in two different ways, one where the plant was only exposed to the volatile for 24 hours and then the herbivore to be assayed was immediately released, and the other where the volatile was permanently exposed throughout the experiment.\nFor this purpose, two climatic chambers were used under the same environmental conditions [25±2° C., 65±5% HR and 14:10 h (L:D) photoperiod], wherein, to avoid interference between the volatiles, one was assigned to the (Z)-3-hexenyl propanoate treatments and one to the control treatment. […]\nEight tomato plants (Lycopersicon esculentum cv. Moneymaker) were introduced in each cage. […] Naked eye sampling was carried out seven, 14, and 21 days after the release of T. urticae, where the total number of T. urticae females in each plant was counted."}, "plant": {"system": "plant", "test": "Growth and production of plants exposed to the volatile", "format": "in vivo"}, "Diaphorina citri": {"system": "Diaphorina citri", "test": "Citrus field assay with sentinel Murraya paniculata seedlings with and without dispenser", "format": "in vivo", "method": "A Valencia orange field with a high presence of receptive shoots and a population of D. citri adults located in the experimental fields of SWFREC (University of Florida) was selected. […] Sentinel plants that were hung inside the tree canopy were used. The sentinel plants were seedlings of Murraya paniculata with shoots receptive to the laying of D. citri. 7 seedlings with a dispenser (polymeric dispenser that was loaded with 1.5 ml of (Z)-3-hexenyl propanoate) and 7 seedlings without a dispenser were used. Each seedling was distributed in the field following a random block design (using a row of trees as a block), and one seedling with a dispenser and another one without was placed in each block. The seedlings were located at a minimum distance of 50 meters from each other to avoid any edge effect.\nAfter 4 days of placing the seedlings, these were collected from the field and taken to the laboratory, where the number of eggs per shoot in each of the seedlings was counted under a binocular loupe."}}}
{"smiles": "CC/C=C\\CCOC(=O)CC", "note": "[(Z)-3-hexenyl propanoate]", "values": [{"measurement": "Expression of PIN2 compared to plants in the control zone", "setting": "[1]", "result": "significantly higher"}, {"measurement": "Expression of PR1 compared to plants in the control zone", "setting": "[2]", "result": "significantly higher"}, {"measurement": "Reduction in the number of mites per plant with respect to the control", "setting": "Tetranychus urticae; plant exposed for 24 h before release", "result": "50.3±6.3", "unit": "%"}, {"measurement": "Reduction in the number of mites per plant with respect to the control", "setting": "Tetranychus urticae; plant exposed throughout the entire experiment", "result": "83.9±5.0", "unit": "%"}, {"measurement": "Growth or production of the plant", "setting": "plant", "result": "does not reduce the growth or production of the plant"}, {"measurement": "Reduction of D. citri (laying, eggs per shoot)", "setting": "Diaphorina citri; Valencia orange field, Murraya paniculata sentinel seedlings, dispenser with 1.5 ml, 4 days", "result": "more than 70%"}, {"measurement": "Laying of D. citri", "setting": "Diaphorina citri; citrus plant exposed to the volatile, summary statement", "result": "reduced by more than half"}]}
